Test results published in ChEMBL document CHEMBL1201862, “PubChem BioAssay data set” (2004).
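Cells were grown in 96-well plates and exposed to each compound for 48 hours at five concentrations; endpoints were interpolated linearly between bracketing concentrations, or set to the highest concentration if not reached. GI50 = concentration required for 50% inhibition of growth.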 Activity calls are given as the source filed them. Rule as the data show it: active = GI50 up to about 1.1 µM and inactive = higher. Where a SMILES comes first, the peptide text is derived from it. [ ]: non-standard residue; d: D form. ξ: configuration not given here. ξThz(5,5-Me2) = CC1(C)SCNC1C(=O)O

How the values were obtained:
Assay in all cases: NCI anticancer screen, dose series, 48 h
HT-29 = system: HT-29
SF-268 = system: SF-268
OVCAR-8 = system: OVCAR-8
HCC 2998 = system: HCC 2998
UO-31 = system: UO-31
BT-549 = system: BT-549
SK-MEL-5 = system: SK-MEL-5
A549 = system: A549
SN12C = system: SN12C
HOP-62 = system: HOP-62
NCI-H460 = system: NCI-H460
Malme-3M = system: Malme-3M
OVCAR-3 = system: OVCAR-3
K562 = system: K562
SNB-75 = system: SNB-75
SK-MEL-2 = system: SK-MEL-2
UACC-257 = system: UACC-257
COLO 205 = system: COLO 205
A498 = system: A498
T47D = system: T47D

Row | Structure (SMILES) | GI50 (HT-29) | GI50 (SF-268) | GI50 (OVCAR-8) | GI50 (HCC 2998) | GI50 (UO-31) | GI50 (BT-549) | GI50 (SK-MEL-5) | GI50 (A549) | GI50 (SN12C) | GI50 (HOP-62) | GI50 (NCI-H460) | GI50 (Malme-3M) | GI50 (OVCAR-3) | GI50 (K562) | GI50 (SNB-75) | GI50 (SK-MEL-2) | GI50 (UACC-257) | GI50 (COLO 205) | GI50 (A498) | GI50 (T47D)
1 | CC(C)CCc1c(Cl)nc(Cl)nc1Cl | 12.8 µM (inactive) | 17.6 µM (inactive) | > 10 µM (inactive) | 16.5 µM (inactive) | 20.1 µM (inactive) | 4.1 µM (inactive) | 4.07 µM (inactive) | 21.7 µM (inactive) | 10.7 µM (inactive) | 16.4 µM (inactive) | 15.5 µM (inactive) | 6.12 µM (inactive) | 11.9 µM (inactive) | 3.41 µM (inactive) | 10 µM (inactive) | 16 µM (inactive) | 16.7 µM (inactive) | – | – | –
2 | CC1(C)OB(O)OC1(C)C | > 100 µM (inactive) | > 100 µM (inactive) | > 100 µM (inactive) | > 100 µM (inactive) | > 100 µM (inactive) | – | > 100 µM (inactive) | > 100 µM (inactive) | > 100 µM (inactive) | > 100 µM (inactive) | > 100 µM (inactive) | > 100 µM (inactive) | > 100 µM (inactive) | > 100 µM (inactive) | > 100 µM (inactive) | > 100 µM (inactive) | > 100 µM (inactive) | > 100 µM (inactive) | > 100 µM (inactive) | –
3 | O=C(N/C(=C\c1cccc([N+](=O)[O-])c1)c1nc2ccccc2[nH]1)c1ccccc1 | 28.9 µM (inactive) | 45.3 µM (inactive) | 30.3 µM (inactive) | 94.4 µM (inactive) | 16.6 µM (inactive) | – | 41.1 µM (inactive) | 35.2 µM (inactive) | 68.7 µM (inactive) | 42.8 µM (inactive) | 87.1 µM (inactive) | > 100 µM (inactive) | 51.2 µM (inactive) | 50.5 µM (inactive) | 36.4 µM (inactive) | 66.7 µM (inactive) | > 100 µM (inactive) | 93.1 µM (inactive) | 35.8 µM (inactive) | –
4 | CCOC(=O)c1c(C)n(Cc2ccccc2)c2c1cc(O)c1[nH]c3c(c12)CCCC3 | 13.4 µM (inactive) | 1.81 µM (inactive) | 6.32 µM (inactive) | – | 2.58 µM (inactive) | 11.7 µM (inactive) | 3.98 µM (inactive) | 6.52 µM (inactive) | 5.47 µM (inactive) | 11.7 µM (inactive) | 2.82 µM (inactive) | 3.79 µM (inactive) | 2.2 µM (inactive) | 3.33 µM (inactive) | – | 2.31 µM (inactive) | 17.5 µM (inactive) | 5.85 µM (inactive) | – | 2.03 µM (inactive)
5 | CCOC(=O)/C(=C/Nc1c(C)n(C)n(-c2ccccc2)c1=O)C(C)=O | – | – | > 100 µM (inactive) | > 100 µM (inactive) | > 100 µM (inactive) | > 100 µM (inactive) | > 100 µM (inactive) | > 100 µM (inactive) | > 100 µM (inactive) | – | – | > 100 µM (inactive) | > 100 µM (inactive) | > 100 µM (inactive) | > 100 µM (inactive) | > 100 µM (inactive) | > 100 µM (inactive) | > 100 µM (inactive) | > 100 µM (inactive) | –
6 | CN(C)CCCNc1cnc2cc3ccccc3cc2n1 | 15 µM (inactive) | 23.8 µM (inactive) | 19.6 µM (inactive) | 17.2 µM (inactive) | – | 15.3 µM (inactive) | 19.6 µM (inactive) | 26 µM (inactive) | 33.1 µM (inactive) | 26.2 µM (inactive) | 33.3 µM (inactive) | 14.1 µM (inactive) | 17.6 µM (inactive) | 25.4 µM (inactive) | 23.7 µM (inactive) | 19.5 µM (inactive) | 19.2 µM (inactive) | 18.3 µM (inactive) | 17.5 µM (inactive) | –
7 | Cc1cc(C)nc(NS(=O)(=O)c2ccc(NC(=O)c3cccc4c(Nc5ccc(S(=O)(=O)N=C(N)N)cc5)c5ccccc5nc34)cc2)n1 | 37.1 µM (inactive) | 22.5 µM (inactive) | 7.94 µM (inactive) | 4.85 µM (inactive) | 46.6 µM (inactive) | – | 54.8 µM (inactive) | 62.5 µM (inactive) | 50.7 µM (inactive) | 37.8 µM (inactive) | 83.6 µM (inactive) | > 100 µM (inactive) | 10.5 µM (inactive) | 7.6 µM (inactive) | 38 µM (inactive) | 52.8 µM (inactive) | 24.7 µM (inactive) | 37.9 µM (inactive) | > 100 µM (inactive) | –
8 | CC[C@H](C)C1=C(OC(C)=O)[N@+]2([O-])Oc3ccc(-c4c(OC(C)=O)c(OC(C)=O)c(-c5ccc(OC(C)=O)cc5)c(OC(C)=O)c4OC(C)=O)cc3O[C@]2([C@@H](C)CC)C(=O)N1OC(C)=O | 15.6 µM (inactive) | 14.7 µM (inactive) | 11.5 µM (inactive) | 0.00766 µM (active) | 21.4 µM (inactive) | – | 10.2 µM (inactive) | 12.7 µM (inactive) | 17.9 µM (inactive) | – | 20 µM (inactive) | 15.2 µM (inactive) | 9.29 µM (inactive) | 14.5 µM (inactive) | 12 µM (inactive) | 9.64 µM (inactive) | 13.7 µM (inactive) | 8.15 µM (inactive) | 14.1 µM (inactive) | 10.5 µM (inactive)
9 | CC(=O)N(O)c1ccc(-c2nc3ccccc3s2)cc1 | 46.6 µM (inactive) | 74.6 µM (inactive) | 40.9 µM (inactive) | 61.9 µM (inactive) | 46 µM (inactive) | – | 39.2 µM (inactive) | 42.6 µM (inactive) | > 100 µM (inactive) | 42.1 µM (inactive) | 46.9 µM (inactive) | 31.3 µM (inactive) | 52.2 µM (inactive) | > 100 µM (inactive) | 33 µM (inactive) | 66.7 µM (inactive) | > 100 µM (inactive) | > 100 µM (inactive) | 35.6 µM (inactive) | 32.9 µM (inactive)
10 | CC(C)(C)NC(=O)NC12CC3CC(CC(F)(C3)C1)C2 | > 100 µM (inactive) | – | > 100 µM (inactive) | > 100 µM (inactive) | > 100 µM (inactive) | – | – | > 100 µM (inactive) | – | > 100 µM (inactive) | > 100 µM (inactive) | > 100 µM (inactive) | > 100 µM (inactive) | > 100 µM (inactive) | 52.7 µM (inactive) | > 100 µM (inactive) | > 100 µM (inactive) | > 100 µM (inactive) | > 100 µM (inactive) | –
11 | Cc1ccc(O)c(Cc2nc3ccccc3nc2-c2cccc(Br)c2)c1 | > 100 µM (inactive) | > 100 µM (inactive) | > 100 µM (inactive) | – | 89.1 µM (inactive) | > 100 µM (inactive) | > 100 µM (inactive) | > 100 µM (inactive) | > 100 µM (inactive) | > 100 µM (inactive) | > 100 µM (inactive) | > 100 µM (inactive) | > 100 µM (inactive) | 34.4 µM (inactive) | > 100 µM (inactive) | > 100 µM (inactive) | 45.7 µM (inactive) | > 100 µM (inactive) | – | > 100 µM (inactive)
12 | C=C(C)[C@@H]1CCC2=C[C@H](OC2=O)[C@@]2(C)C[C@@H]2C2=CC(C)=C(O2)[C@H]1O | 23 µM (inactive) | 30.7 µM (inactive) | 25.1 µM (inactive) | > 75 µM (inactive) | 60.8 µM (inactive) | – | – | 39 µM (inactive) | 25.5 µM (inactive) | > 75 µM (inactive) | 54.3 µM (inactive) | 48.9 µM (inactive) | 43.4 µM (inactive) | > 75 µM (inactive) | 35.5 µM (inactive) | 40.8 µM (inactive) | 39.1 µM (inactive) | 33.2 µM (inactive) | > 75 µM (inactive) | 28.1 µM (inactive)
13 | CC1SCc2nc3ccccc3n21 (configuration not stated) | > 100 µM (inactive) | > 100 µM (inactive) | > 100 µM (inactive) | > 100 µM (inactive) | > 100 µM (inactive) | – | > 100 µM (inactive) | > 100 µM (inactive) | > 100 µM (inactive) | > 100 µM (inactive) | > 100 µM (inactive) | > 100 µM (inactive) | > 100 µM (inactive) | > 100 µM (inactive) | 0.284 µM (active) | > 100 µM (inactive) | > 100 µM (inactive) | > 100 µM (inactive) | > 100 µM (inactive) | > 100 µM (inactive)
14 | CCCCN(CCCC)CC(O)c1cc(-c2ccc(Cl)c(Cl)c2)nc2c(Cl)cc(Cl)cc12 (configuration not stated) | > 100 µM (inactive) | 39.7 µM (inactive) | > 100 µM (inactive) | 16.2 µM (inactive) | 66.4 µM (inactive) | – | – | – | 47.4 µM (inactive) | 66.5 µM (inactive) | > 100 µM (inactive) | > 100 µM (inactive) | > 100 µM (inactive) | > 10 µM (inactive) | > 100 µM (inactive) | > 100 µM (inactive) | 86.1 µM (inactive) | > 100 µM (inactive) | > 100 µM (inactive) | 37.2 µM (inactive)
15 | CSCC[C@H](NC(=O)[C@H](CC(C)C)NC(=O)[C@H](Cc1c[nH]cn1)NC(=O)CNC(=O)C1N(C(=O)[C@@H](C)NC(=O)[C@H](Cc2c[nH]c3ccccc23)NC(=O)[C@H](CCC(N)=O)NC(=O)[C@@H](N)CC(N)=O)CSC1(C)C)C(N)=O (some centres not stated) (H-NQW[dA][ξThz(5,5-Me2)]GHLM-NH2) | > 25 µM (inactive) | > 25 µM (inactive) | > 25 µM (inactive) | > 25 µM (inactive) | – | – | > 25 µM (inactive) | > 25 µM (inactive) | > 25 µM (inactive) | > 25 µM (inactive) | > 25 µM (inactive) | > 25 µM (inactive) | > 25 µM (inactive) | > 25 µM (inactive) | > 25 µM (inactive) | – | > 25 µM (inactive) | > 25 µM (inactive) | > 25 µM (inactive) | > 25 µM (inactive)
